Data set [1] in a line: Serum peak concentration of free PB in mice (literature, ref. 83, and scaling). Type of data set: in vivo. To be noted: 4 mg/kg, estimated by scaling from the 3 mg/kg dose. The method, then:
An appropriate starting dose of free PB in mice is estimated by parameter scaling (ref 57; incorporated by reference in its entirety) to attain Cmax exposures that approximate concentrations obtained in human serum. […] Studies are initiated with a PB dose of 4 mg/kg in mice given by tail vein injection every 12 hr. Mice are monitored for 7 days for signs of toxicity (altered respiratory rate, lack of grooming, decreased activity, weight loss). The dose is increased by 1 mg/kg increments until toxicity is observed. Doses that cause more than temporary symptoms are considered the minimal toxic dose, and the next lower dose will be designated the MTD. The MTD of […] is determined in the same manner, starting with the PB molar equivalent MTD of […].

In data set [2] the test system is PA. The conditions noted are these: free PB for PA; cited from earlier work.
Data set [3] has as its system PA strain PA99. Put plainly: Mouse PA abscess model, treatment injected at the site of infection. The format is in vivo, Pseudomonas aeruginosa. The conditions noted are these: mice, data not shown. Here is the method: FIG. 17. AuNP-PB administration at time of infection with PA prevents abscess formation. Mice were injected subcutaneously (SC) with 2×10^6 CFU of PA strain PA99 in 25 ul of PBS, and were then immediately treated with 50 ul PBS (SC), AuNP-PB (SC, equivalent of 2 ug PB), AuNP (without PB, SC, equivalent amount), or free PB (1 ug IV). SC injections were at the site of the abscess. Abscess areas were measured at 17 hr post-infection. Each symbol represents a distinct mouse. (A) Injections 5 min post-infection; (B) Injections 2 hr post-infection.
Experiments conducted during development of embodiments herein employed a mouse PA abscess model in which the heterogenous AuNP-PB are injected directly into the site of infection. This assay has the advantage of determining whether AuNP-PB kill bacteria in vivo in the absence of PK concerns.

The conditions of data set [4]: mice, 3 mg/kg PB dose; cited from earlier work.
The conditions of data set [5]: rats, PB alone; cited from earlier work.

For the substance polymyxin B [PB], the Cmax (commonly the maximum level reached in the sampled fluid or tissue) in data set [1] is 5300 ng/mL. Further, the MIC (commonly the least concentration at which growth counts as inhibited) in data set [2] is 0.5 to 1.0 µg/mL. For the same substance, in data set [3], the Bacterial loads result is “below the limit of detection”. In addition, the “Mean peaks (serum)” value in data set [4] was around 4 mg/L. Further, in data set [5], the Mean half-life is 1.5 h.

The record behind these values is US10688195B2, “Polymyxin B-coated nanoparticles” (Northwestern University, priority 2016, dated 2020).
